Here are results for 13 compounds from ChEMBL document CHEMBL1201862, “PubChem BioAssay data set” (2004).

Among the test systems are 786-0; A498; A549; CAKI-1; HCT-15; HT-29; IGROV-1; M14; MOLT-4; NCI-H226; NCI-H23; NCI-H460; NCI-H522; RPMI-8226; SK-MEL-28; SNB-75; UACC-62; CCRF-CEM.
Holding throughout (test): NCI tumour cell line growth inhibition, 48 h

SMILES strings stand for the structures.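 Five compound concentrations were applied to cells in 96-well plates for 48 hours; endpoints were derived by simple linear interpolation of the resulting dose-response curve. GI50 marks 50% less growth.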 Activity calls are given as the source filed them. No stated cut-off is given here; in the data, active = GI50 up to about 1.1 µM and inactive = higher.

In the case of `CN1CCN(CCSC2Cc3cc(Cl)ccc3Sc3ccccc32)CC1` (stereo not given), the GI50 in the assay on 786-0 was 4.55 µM (inactive); in the assay with A498 it was 6.41 µM (inactive); with A549, 6.05 µM (inactive); in the assay on CAKI-1, 6.67 µM (inactive); in the assay with HCT-15, 4.59 µM; with HT-29, 1.63 µM (inactive). In addition, the GI50 is 10.3 µM (inactive) with IGROV-1; 1.91 µM (inactive) in the assay on M14; 2.44 µM (inactive) in the assay with MOLT-4; 16.9 µM (inactive) in the assay with NCI-H226; 7.89 µM (inactive) in the assay on NCI-H23; 4.95 µM (inactive) in the assay on NCI-H460. Moreover, the GI50 in the assay on NCI-H522 was 5.93 µM (inactive); in the assay with RPMI-8226, 2.26 µM (inactive); with SK-MEL-28, 1.86 µM (inactive); in the assay with SNB-75 it was 5.82 µM (inactive); with UACC-62 it was 1.91 µM (inactive).

For the compound `CCOc1ccc(NC2=NC(=O)C(CC(=O)Nc3ccc(Cl)cc3Cl)S2)cc1` (stereo not given), the GI50 with 786-0 was > 100 µM (inactive); in the assay on A498, 68.7 µM (inactive); in the assay with A549 it was > 100 µM (inactive); with CAKI-1 it was > 100 µM (inactive); in the assay with CCRF-CEM, 21.6 µM (inactive); in the assay with HCT-15 it was > 100 µM. The GI50 was > 100 µM (inactive) in the assay with HT-29; > 100 µM (inactive) in the assay with IGROV-1; > 100 µM (inactive) in the assay with M14; 43.8 µM (inactive) with MOLT-4; > 100 µM (inactive) in the assay with NCI-H23; > 100 µM (inactive) in the assay with NCI-H460. The GI50 with RPMI-8226, with SK-MEL-28, in the assay on SNB-75 and in the assay with UACC-62 was > 100 µM (inactive) each time.

For `CCCCOC(=O)NC(=O)c1cn(CCSCCOC(=O)NCCCCCCNC(=O)OCCSCCn2cc(C(=O)NC(=O)OCCCC)c(=O)[nH]c2=O)c(=O)[nH]c1=O`, the GI50 in the assay on 786-0 is 32.3 µM (inactive); in the assay on A498 it was 29.4 µM (inactive); in the assay with A549 it was > 100 µM (inactive); in the assay with HCT-15 it was > 100 µM; in the assay on HT-29 it was > 100 µM (inactive); in the assay on IGROV-1, 37.7 µM (inactive). The GI50 with M14 is 58.9 µM (inactive); with NCI-H23, 27.4 µM (inactive); in the assay with NCI-H460, > 100 µM (inactive); with NCI-H522, 32.6 µM (inactive); in the assay on RPMI-8226, > 100 µM (inactive); in the assay on SK-MEL-28, > 100 µM (inactive). Moreover, the values for the GI50 with SNB-75 and in the assay with UACC-62 were 19 µM (inactive) and 41.5 µM (inactive), respectively.

Turning to `COC(=O)[C@@]12CC(C(C)C)[C@H]3CC(C(=O)C=C1OC)[C@H]32` (stereo not given in full), the GI50 is > 100 µM (inactive) with 786-0; > 100 µM (inactive) with A498; > 100 µM (inactive) in the assay on A549; > 100 µM (inactive) in the assay with CAKI-1; 47.5 µM (inactive) in the assay on CCRF-CEM; > 100 µM with HCT-15. Further, the GI50 in the assay with HT-29, with IGROV-1, in the assay on M14, in the assay on MOLT-4, in the assay with NCI-H23 and in the assay on NCI-H460 was > 100 µM (inactive) throughout. The GI50 in the assay with RPMI-8226, with SK-MEL-28, in the assay on SNB-75 and with UACC-62 was > 100 µM (inactive) throughout.

As for `O=[N+]([O-])c1cccc(C2=NN(c3ccccc3)C3c4cc(Br)ccc4OCC23)c1` (stereo not given), the GI50 was > 100 µM (inactive) in the assay with 786-0; > 100 µM (inactive) with A498; > 100 µM (inactive) in the assay with A549; > 100 µM (inactive) with CCRF-CEM; 46.1 µM (inactive) with HT-29; > 100 µM (inactive) in the assay on IGROV-1. Also, the GI50 was > 100 µM (inactive) with MOLT-4; > 100 µM (inactive) with NCI-H23; > 100 µM (inactive) in the assay on NCI-H460; 97.5 µM (inactive) in the assay on NCI-H522; > 100 µM (inactive) in the assay on RPMI-8226; > 100 µM (inactive) in the assay with SK-MEL-28. For the same compound, the GI50 in the assay on SNB-75 is > 100 µM (inactive).

As to `Oc1ccccc1/C=N/c1ccccc1/N=C/c1ccccc1O`, the GI50 in the assay with 786-0 was > 100 µM (inactive); in the assay with A549, > 100 µM (inactive); with CCRF-CEM, 8.3 µM (inactive); in the assay on HCT-15, 79.4 µM; in the assay on HT-29, > 100 µM (inactive); in the assay with IGROV-1, > 100 µM (inactive). Further, the GI50 with M14 is > 100 µM (inactive); in the assay on MOLT-4 it was 16.1 µM (inactive); in the assay with NCI-H226, 65.6 µM (inactive); in the assay on NCI-H23, 38.3 µM (inactive); with NCI-H460, 62.8 µM (inactive); in the assay with NCI-H522 it was 16.7 µM (inactive). For the same compound, the GI50 was 62.7 µM (inactive) with RPMI-8226 and > 100 µM (inactive) with SK-MEL-28.

Consider `O=C(O)c1ccc(/N=N/c2cc(S(=O)(=O)O)c3cccnc3c2O)cc1`, for which the GI50 in the assay on 786-0 is > 100 µM (inactive); in the assay with A498 it was > 100 µM (inactive); in the assay with A549, > 100 µM (inactive); with CAKI-1 it was > 100 µM (inactive); in the assay on HCT-15, > 100 µM; in the assay on HT-29, > 100 µM (inactive). Moreover, the GI50 in the assay on IGROV-1, with MOLT-4, with NCI-H226, in the assay on NCI-H23, in the assay on NCI-H460 and in the assay with RPMI-8226 was > 100 µM (inactive) throughout. Further, the GI50 with SK-MEL-28 and in the assay on SNB-75 was > 100 µM (inactive) each time.

Take `NC(=O)c1cc(C2OC(CO)C(O)C2O)nn1-c1ccc([N+](=O)[O-])cc1` (stereo not given): the GI50 in the assay with 786-0 is > 10 µM (inactive); with A498 it was > 100 µM (inactive); in the assay on A549, > 100 µM (inactive); with CAKI-1, > 100 µM (inactive); in the assay with CCRF-CEM, > 100 µM (inactive); in the assay with HCT-15, > 100 µM. Moreover, the GI50 with HT-29, in the assay on IGROV-1, with M14, in the assay on MOLT-4, in the assay on NCI-H226 and in the assay on NCI-H23 was > 100 µM (inactive) throughout. In addition, the GI50 was > 100 µM (inactive) in the assay with NCI-H460; 88.9 µM (inactive) with RPMI-8226; > 100 µM (inactive) in the assay on SK-MEL-28; > 100 µM (inactive) with SNB-75; > 100 µM (inactive) with UACC-62.

Take `N=CCCN(CCC=N)c1ccc(/C=C2\CN(NC(=O)c3ccc(Cl)cc3)C(c3ccccc3)=N2)cc1`: the GI50 in the assay on 786-0 is 90.2 µM (inactive); in the assay with A498, > 100 µM (inactive); in the assay on A549 it was > 100 µM (inactive); in the assay on CAKI-1 it was > 100 µM (inactive); in the assay with CCRF-CEM it was > 100 µM (inactive); in the assay on HCT-15, > 100 µM. The GI50 in the assay with HT-29, with IGROV-1, in the assay with M14, in the assay with MOLT-4, in the assay with NCI-H226 and with NCI-H23 was > 100 µM (inactive) each time. Moreover, the GI50 in the assay with NCI-H460 is > 100 µM (inactive); in the assay on RPMI-8226 it was 26.4 µM (inactive); in the assay with SK-MEL-28, > 100 µM (inactive); in the assay with SNB-75, > 100 µM (inactive); in the assay on UACC-62 it was > 100 µM (inactive).

Regarding `CCN1C(=O)C/C(=C\C(C)=O)Nc2ccccc21`, the GI50 in the assay on 786-0, with A549, in the assay with CAKI-1, in the assay with CCRF-CEM, with HT-29 and with IGROV-1 was > 100 µM (inactive) each time. For the same compound, the GI50 in the assay on M14, in the assay on MOLT-4, with NCI-H226, in the assay on NCI-H23, in the assay with NCI-H460 and with NCI-H522 was > 100 µM (inactive) each time. In addition, the GI50 in the assay with SK-MEL-28 is > 100 µM (inactive); in the assay on SNB-75, 21.5 µM (inactive); with UACC-62, > 100 µM (inactive).

Take `O=c1c2ccccc2oc2ccccc12.Oc1cccc2cccnc12`: the GI50 was 1.66 µM (inactive) in the assay with 786-0; 16.8 µM (inactive) in the assay with A498; 2.63 µM (inactive) with A549; 3.9 µM (inactive) with CAKI-1; 0.815 µM (active) in the assay on CCRF-CEM; 3.73 µM (inactive) with IGROV-1. Moreover, the GI50 in the assay on M14 is 3.11 µM (inactive); in the assay with MOLT-4 it was 0.607 µM (active); with NCI-H460, 0.966 µM (active); in the assay on NCI-H522 it was 12.9 µM (inactive); in the assay with RPMI-8226, 5.41 µM (inactive); with SNB-75 it was 2.29 µM (inactive). Moreover, in the assay with UACC-62, the GI50 is 3.76 µM (inactive).

With `O=C(O)CN(c1ccccc1)S(=O)(=O)c1ccc(Cl)cc1`, the GI50 with 786-0 was > 100 µM (inactive); in the assay with A498, > 100 µM (inactive); with A549 it was > 100 µM (inactive); in the assay on CAKI-1, > 100 µM (inactive); with CCRF-CEM, > 100 µM (inactive); with HCT-15, > 100 µM. The GI50 in the assay on HT-29, in the assay with IGROV-1, in the assay with M14, with MOLT-4, with NCI-H23 and with NCI-H460 was > 100 µM (inactive) throughout. Also, the GI50 with NCI-H522 is > 100 µM (inactive); in the assay with RPMI-8226 it was > 100 µM (inactive); with SK-MEL-28, > 100 µM (inactive); in the assay on SNB-75, 59 µM (inactive); in the assay with UACC-62 it was > 100 µM (inactive).

With `C[C@@H]1O[C@@H](O[C@H]2[C@H](Oc3cc(O)c4c(=O)cc(-c5ccc(O)cc5)oc4c3)O[C@H](CO)[C@@H](O)[C@@H]2O)[C@H](O)[C@H](O)[C@H]1O` [RHOIFOLIN], the GI50 was > 100 µM (inactive) with 786-0; > 100 µM (inactive) with A498; > 100 µM (inactive) in the assay with A549; > 100 µM (inactive) in the assay with CAKI-1; > 100 µM (inactive) in the assay on CCRF-CEM; > 100 µM in the assay with HCT-15. In addition, the GI50 in the assay on HT-29, in the assay on IGROV-1, with M14, in the assay with MOLT-4, in the assay on NCI-H23 and in the assay with NCI-H460 was > 100 µM (inactive) each time. For the same compound, the GI50 in the assay with NCI-H522, in the assay with RPMI-8226, in the assay on SK-MEL-28, in the assay on SNB-75 and in the assay with UACC-62 was > 100 µM (inactive) throughout.
